Assay [1] deals with FPB antiserum (R4097, bleed I3). Nature of the assay: Competitive ELISA for specificity of the FPB antiserum (competitor in solution vs surface-bound synthetic human FPB). The assay is classed as binding, rabbit. The note with it: for cross-reactivity, defined as IC50 of FPB divided by IC50 of competitor times 100: FPB antiserum, competitive ELISA; for IC50: FPB antiserum 1:2500, competitive ELISA, read-out: IC50, competition for antibody binding to surface-bound synthetic human FPB; for competition / cross-reaction with FPB antiserum (in words): competitor in solution vs surface-bound synthetic human FPB. The protocol:
A competitive ELISA was developed to evaluate the specificity of the FPB antiserum. Unless otherwise noted, all steps were performed at room temperature, and the microplates were washed three times in between each step with 0.02 M NaH2PO4, 0.15 M NaCl, 1 mM EDTA, pH 7.4 (PNE) containing 0.1% tween-20. Microplate wells were first coated with synthetic human FPB ([…] in 0.2 M NaHCO3, […]) overnight at 4 C., and then “blocked” with 1% BSA in PNE (PNEA) for one hour. Meanwhile, serial dilutions of each competitor were prepared. The following competitors, all of human origin except where noted, were tested: native FPB (human and canine), synthetic FPB, synthetic des-arg FPB, synthetic fibrinopeptide A, and purified fibrinogen. […] of each competitor dilution were pre-incubated separately with […] of FPB antiserum (1:2500) in polypropylene microfuge tubes for 90 min. Dilutions of the competitors and of antiserum were prepared in dilution buffer (PNEA containing 0.1% tween-20). At the end of the pre-incubation period, 100 mL of each mixture were applied to duplicate FPB-coated wells and incubated for 90 min. After washing, 100 mL of peroxidase-conjugated goat anti-rabbit IgG detecting antibody (1:5000 in dilution buffer) were added to each well and incubated for one hour. After a final wash, each well was developed with 100 ml of OPD substrate solution for exactly five minutes. The reaction was stopped by addition of an equal volume of 3 N H2SO4, and the absorbance (490 nm) of each well was measured in the microplate reader.
A competitive ELISA was developed for determination of the FPB concentration in plasma and urine ultrafiltrates. Unless otherwise noted, all steps were performed at room temperature, and the microplates were washed three times in between each step with 0.02 M NaH2PO4, 0.15 M NaCl, 1 mM EDTA, pH 7.4 (PNE) containing 0.1% tween-20. Microplate wells were first coated with synthetic FPB (2 μg/ml in 0.2 M NaHCO3, 100 μl/well) overnight at 4 C., and then “blocked” with 1% BSA in PNE (PNEA) for one hour. Meanwhile, 20 μl of ultrafiltered samples and synthetic FPB standards (1.56-100 ng/ml) were pre-incubated separately with 200 μl of FPB antiserum (1:2500) in polypropylene microfuge tubes for one hour. Dilutions of the FPB standard and antiserum were prepared in dilution buffer (PNEA containing 0.1% tween-20). At the end of the pre-incubation period, 100 μl of each mixture were applied to duplicate FPB-coated wells and incubated for one hour. After washing, 100 μl of peroxidase-conjugated goat anti-rabbit IgG detecting antibody (1:5000 in dilution buffer) were added to each well and incubated for one hour. After a final wash, each well was developed with 100 μl of OPD substrate solution for exactly five minutes. The reaction was stopped by addition of an equal volume of 3 N H2SO4, and the absorbance (490 nm) of each well was measured in a microplate reader. The concentration of FPB in the samples was interpolated from a standard curve obtained by plotting the FPB concentration of each standard versus the corresponding absorbance. If sample values exceeded the upper limit of the standard curve, those samples were re-tested after appropriate dilution with dilution buffer. The intra- and inter-assay coefficients of variation for the FPB assay were 14.1% and 5.0%, respectively. The competitive ELISA was also used to assess the cross-reactivity of the FPB antiserum with human fibrinogen, fibrinopeptide A (FPA), des-arg FPB, and canine FPB.

Assay [2] deals with femoral vein thrombi / pulmonary emboli. The experiment in a line: Canine fibrinogen-replacement thrombosis and pulmonary embolism model, FPB in plasma and urine (Example 3). It counts as in vivo, dog. The note with it: n=3. The protocol: A competitive ELISA was developed for determination of the FPB concentration in plasma and urine ultrafiltrates. Unless otherwise noted, all steps were performed at room temperature, and the microplates were washed three times in between each step with 0.02 M NaH2PO4, 0.15 M NaCl, 1 mM EDTA, pH 7.4 (PNE) containing 0.1% tween-20. Microplate wells were first coated with synthetic FPB (2 μg/ml in 0.2 M NaHCO3, 100 μl/well) overnight at 4 C., and then “blocked” with 1% BSA in PNE (PNEA) for one hour. Meanwhile, 20 μl of ultrafiltered samples and synthetic FPB standards (1.56-100 ng/ml) were pre-incubated separately with 200 μl of FPB antiserum (1:2500) in polypropylene microfuge tubes for one hour. Dilutions of the FPB standard and antiserum were prepared in dilution buffer (PNEA containing 0.1% tween-20). At the end of the pre-incubation period, 100 μl of each mixture were applied to duplicate FPB-coated wells and incubated for one hour. […] The reaction was stopped by addition of an equal volume of 3 N H2SO4, and the absorbance (490 nm) of each well was measured in a microplate reader. The concentration of FPB in the samples was interpolated from a standard curve obtained by plotting the FPB concentration of each standard versus the corresponding absorbance. […]

Assay [3] deals with experimentally induced thrombi. The experiment in a line: Canine experimental thrombosis model, FPBtot in plasma and urine (Example 2). It counts as in vivo, dog. The note with it: heparin bolus 300 units/kg, infusion 90 units/kg/hr after embolization, three dogs. From the text:
Adult mongrel dogs were anesthetized and their native fibrinogen depleted. After the ancrod has been eliminated from the circulation, during a time when the native fibrinogen activity is minimal, experimental thrombi are induced as previously described (Morris et al. 1997b). The dogs are anesthetized with halothane, intubated and mechanically ventilated to maintain arterial blood gases within normal limits. […] After this, they were transfused with 6 grams of purified human fibrinogen in normal saline to achieve a fibrinogen level of at least 300 mg/dl. Under these conditions, fibrinogen levels were maintained at >200 mg/dl throughout the study period.
Double balloon catheters were advanced via hind-leg saphenous veins to the femoral veins on each side. The balloons were then inflated, creating a 5 ml sealed chamber within the veins. […]
Blood and urine samples were collected into titrated tubes (containing protease inhibitors) at baseline, after defibrinogenation, at regular intervals after thrombus induction, and after anticoagulation. […] All samples were stored at […] until analyzed. FPBtot levels in urine and ultrafiltrated plasma are determined by immunoassay as described above.
The means and standard deviations of the FPBtot levels, as determined by immunoassay, associated with each time point are calculated. […]

Assay [4] in a line: Urinary FPBtot before and during anticoagulation in VTE patients (Example 6). The assay is classed as in vivo, human. From the text:
Consecutive patients referred to the VTE service in whom the diagnosis of DVT and/or PE is confirmed (based on the criteria described above) are enrolled. Prior to therapy, blood and urine samples are collected for measurement of FPBtot (and other FPB measurements described above). Patients are then be treated with intravenous heparin (80 units/kg bolus, 18 units/kg/hr infusion), with the dose adjusted per protocol to keep aPTT 1.5-2.5 times the control values. As soon as steady-state “therapeutic doses” of heparin are maintained, blood and urine are collected again and the same parameters are measured. In addition, plasma aPTT, anti-Xa and anti-thrombin measurements are made as previously described (Morris et al. 1998).
For each patient, the difference between urinary and plasma FPBtot levels, measured before and after anticoagulation, is recorded. The mean reduction in FPBtot levels after anticoagulation is calculated. The required sample size is estimated based on the preliminary data described below: The mean (+/−SD) decrease in urinary FPBtot during anticoagulation was 60 ng/ml (+/−85.7 ng/ml). Assuming similar standard deviations for the VTE patients to be studied, thirty-seven pairs of samples are required in order to detect a 50% decrease in the levels after anticoagulation, with an alpha of 0.01 and a power of 95%.

“Also recorded” adds a separate entry of the source. Bounds are passed on as bounds.

As usually defined, the IC50 is the concentration needed to halve the response being measured.

Take “FPA: short amino acid sequence at the amino terminus of the alpha chain of fibrinogen (ADSGEGDFLAEGGGVR)”: the “cross-reactivity, defined as IC50 of FPB divided by IC50 of competitor times 100” value in assay [1] is reported as less than 0.1%.

Regarding “QGVNDNEEGFFSA [des-arg FPB, degradation product formed as FPB is exposed to carboxypeptidases in normal plasma]”, in assay [1], the IC50 worked out at 8.9 nM and the “cross-reactivity, defined as IC50 of FPB divided by IC50 of competitor times 100” value came out at 75%.

On to “QGVNDNEEGFFSAR [FPB, human fibrinopeptide B, cleaved by thrombin from the beta-chains of fibrin I]”, for which the IC50 in assay [1] is 6.7 nM.

With “fibrinogen: purified human fibrinogen, used as ELISA competitor and for transfusion of dogs”, in assay [1], the half-maximal inhibitory concentration (IC50) worked out at 2.3 nM and the “competition / cross-reaction with FPB antiserum (in words)” value (“competition / cross-reaction” below) is listed as “significant cross-reaction; also recorded: significant cross-reactivity”.

With heparin, in assay [2] (heparin iv 300 units/kg bolus, 90 units/kg/hr, one hour prior to embolization), the “rise in plasma FPB following embolization” value is reported as “completely suppressed”. For the same substance, in assay [2] (heparin iv one hour prior to embolization), the “initial peak of total urinary FPB” value was “suppressed”. Besides, the “thrombosis after excess heparin” value in assay [3] was “thrombosis is halted”. Also, the “urinary levels of FPB during anticoagulation (in words)” value in assay [4] (all but one patient) is “significantly decreased”. The “mean decrease in urinary FPBtot during anticoagulation” value in assay [4] (preliminary data, mean (+/-SD)) came to 60 ng/mL.

Turning to “native canine FPB: FPB derived from purified canine fibrinogen clotted with thrombin, ultrafiltrate (HYYDDTDEEERIVSTVDAR)”, in assay [1], the “competition / cross-reaction” value was “did not compete”.

Turning to “native human FPB: FPB derived from purified human fibrinogen clotted with thrombin, ultrafiltrate (QGVNDNEEGFFSAR)”, in assay [1], the “competition / cross-reaction” value is given as “effective competitive inhibitor”.

The values above are taken from patent US6673561B1, “Diagnostic test for thrombotic or thromboembolic disease” (Regents of the University of California, priority 1999, dated 2004).
